Publication PMC2656571 (Journal of medicinal chemistry, 2008)

Legend:
Format in all cases: cell-based
HIV-1 IIIB = assay: Inhibition of HIV-1 IIIB replication in MT-2 cells; conditions: CC50 (MT-2 cells) / EC50 (p24 production)
MT-2 cells = assay: In vitro cytotoxicity on MT-2 cells; conditions: human
[1] = system: HIV-1-mediated cell-cell fusion; assay: HIV-1-mediated cell-cell fusion; conditions: data not shown
HIV-1 = assay: HIV-1-mediated cytopathic effect; conditions: data not shown

Row | Structure (SMILES) | SI (selectivity index, CC50/EC50) (HIV-1 IIIB) | CC50 at 4 days (MT-2 cells) [µM] | Inhibition of HIV-1-mediated cell-cell fusion [1] | Inhibition of HIV-1-mediated cytopathic effect (CPE) (HIV-1)
1 | O=C(O)c1cc(-n2cccc2)ccc1O [Compound A2, N-(3-Carboxy-4-hydroxy)phenylpyrrole] | >50.99 | > 493 | – | –
2 | O=C(O)c1ccc(-n2cccc2)cc1 [Compound A6, N-(4-Carboxy)phenylpyrrole] | >7.72 | > 535 | – | –
3 | O=C(O)c1ccc(-c2noc(C(F)(F)F)n2)cc1 [Compound B10, 3-(4-Carboxyphenyl)-5-(trifluoromethyl)-1,2,4-oxadiazole] | > 16 | – | – | –
4 | Cc1ccc(C)n1-c1ccc(O)c(C(=O)O)c1 [Compound A12, N-(3-Carboxy-4-hydroxy)phenyl-2,5-dimethylpyrrole] | – | – | effectively inhibited | effectively inhibited
5 | O=C(O)Cc1ccc(-n2cccc2)cc1 [Compound A7, N-(4-Carboxymethene)phenylpyrrole] | >1.34 | > 498 | – | –
6 | O=C(O)Cc1ccc(Cn2cccc2)cc1 [Compound A10, N-(4-Carboxymethene)benzylpyrrole] | – | > 465 | – | –
7 | O=C(O)c1ccc(Cn2cccc2)cc1 [Compound A9, N-(4-Carboxy)benzylpyrrole] | >7.78 | > 498 | – | –
8 | Cc1ccc(C)n1-c1ccc(Cl)cc1C(=O)O [Compound A18, N-(4-Chloro-2-carboxy)phenyl-2,5-dimethylpyrrole] | >46.73 | > 400 | – | –
9 | O=C(O)c1ccc(-c2noc(CCl)n2)cc1 [Compound B6, 3-(4-Carboxy)phenyl-5-chloromethyl-1,2,4-oxadiazole] | > 16 | – | – | –
10 | Cc1ccc(C)n1Cc1ccc(C(=O)O)cc1 [Compound A19, N-(4-Carboxy)benzyl-2,5-dimethylpyrrole] | 19.20 | 299 | – | –
